Test results as given in ChEMBL document CHEMBL2069275, “Phenolic compounds as antiangiogenic CMG2 inhibitors from Costa Rican endophytic fungi” (Bioorg Med Chem Lett, 2012).
The source made the active and inactive calls. No cut-off for these calls is given here.

Key:
[1] = test system: HMVEC; assay: Antiangiogenic activity against human HMVEC at 39 uM after 4 hrs by Diff-Quick staining relative to control; type: functional
[2] = Antiproliferative activity against human HMVEC at 117 uM after 24 to 72 hrs by Cyquant-based fluorimetry relative to control
[3] = test system: HMVEC; assay: Antiangiogenic activity against human HMVEC at 117 uM after 4 hrs by Diff-Quick staining relative to control; type: functional
[4] = Antiproliferative activity against human HMVEC at 39 uM after 24 to 72 hrs by Cyquant-based fluorimetry relative to control
[5] = target: Anthrax toxin receptor 2 (Homo sapiens, UniProt P58335, R40C); assay: (§1) Inhibition of AF546-tagged CMG2 R40C mutant binding to AF488-tagged PA E733C mutant incubated for 1 to 3 hrs prior to AF488-tagged PA E733C addition measured after 3 to 4 hrs by FRET assay
[6] = test system: Anthrax toxin receptor 2 (Homo sapiens), P58335 [R40C]; assay: as §1
[7] = Antiangiogenic activity against human HMVEC at 156 uM after 4 hrs by Diff-Quick staining relative to control; type: functional
[8] = Antiproliferative activity against human HMVEC at 52 uM after 24 to 72 hrs by Cyquant-based fluorimetry relative to control
[9] = Antiangiogenic activity against human HMVEC at 52 uM after 4 hrs by Diff-Quick staining relative to control; type: functional
[10] = Antiproliferative activity against human HMVEC at 156 uM after 24 to 72 hrs by Cyquant-based fluorimetry relative to control

Anthrax toxin receptor 2 (Homo sapiens), P58335 [R40C], sequence (P58335 whole entry R40C): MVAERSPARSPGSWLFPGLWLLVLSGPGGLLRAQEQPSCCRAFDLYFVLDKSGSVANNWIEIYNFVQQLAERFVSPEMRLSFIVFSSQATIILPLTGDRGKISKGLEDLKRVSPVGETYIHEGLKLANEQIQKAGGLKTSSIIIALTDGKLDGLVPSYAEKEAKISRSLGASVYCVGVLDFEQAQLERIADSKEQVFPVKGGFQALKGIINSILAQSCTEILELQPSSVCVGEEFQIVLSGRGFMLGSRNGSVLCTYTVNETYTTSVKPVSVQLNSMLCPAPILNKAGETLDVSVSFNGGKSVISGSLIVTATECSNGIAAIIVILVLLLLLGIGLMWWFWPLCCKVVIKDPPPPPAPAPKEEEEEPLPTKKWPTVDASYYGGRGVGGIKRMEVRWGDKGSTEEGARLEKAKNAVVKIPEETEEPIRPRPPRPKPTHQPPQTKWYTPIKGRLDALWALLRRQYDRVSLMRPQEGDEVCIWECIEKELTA
Anthrax toxin receptor 2, sequence (P58335 whole entry R40C): as above

## COc1cccc2c1c(O)cc1cc(C)c(=O)oc12
[1]
  Activity: inactive
[2]
  Activity: Toxic
[3]
  Activity: inactive
[4]
  Activity: Toxic
[5]
  IC50: 500 nM

## COc1cccc2c1c(OC)cc1cc(C)c(=O)oc12
[6]
  inhibition: inactive

## Cc1cc2cc(O)cc(O)c2c(=O)o1
[7]
  Activity: 93.1%
[8]
  Activity: Non-toxic
[9]
  Activity: 96%
[10]
  Activity: Non-toxic
